# Results taken from the supplement of paper PMC6045584.
# ± gives the standard deviation of the averaged measurements.
# Assays:
# CARBOPLATIN = compound: O=C(O)C1(C(=O)O)CCC1.[NH2-].[NH2-].[Pt+2] [CARBOPLATIN]; experiment: surviving fraction relative to DMSO-only wells; higher = less growth inhibition; details: exposure time: 5 days
# Outline: (§1)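 Lines were retained only if, across three screens, replicate Pearson r was >0.7 and median Z' was >0.3. Viability was measured as CellTiter-Glo luminescence and reported as surviving fraction relative to the median of DMSO-only wells. Readings followed 10 minutes at room temperature, after log-phase tumour cells seeded at 250–500 per well in 384-well plates had been exposed, from 24 hours after seeding, continuously for five days to inhibitors at 0.5, 1, 5, 10, 50, 100, 500 and 1000 nM.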
# [1] = compound: CC(=O)c1c(C)c2cnc(Nc3ccc(N4CCNCC4)cn3)nc2n(C2CCCC2)c1=O; experiment: as above; details: exposure time: 5 days
# Outline: as §1
Test System,surviving fraction (CARBOPLATIN; 0.5 nM),surviving fraction (CARBOPLATIN; 1 nM),surviving fraction (CARBOPLATIN; 5 nM),surviving fraction (CARBOPLATIN; 10 nM),surviving fraction (CARBOPLATIN; 50 nM),surviving fraction (CARBOPLATIN; 100 nM),surviving fraction (CARBOPLATIN; 500 nM),surviving fraction (CARBOPLATIN; 1000 nM),surviving fraction ([1]; 0.5 nM),surviving fraction ([1]; 1 nM),surviving fraction ([1]; 5 nM),surviving fraction ([1]; 10 nM),surviving fraction ([1]; 50 nM),surviving fraction ([1]; 100 nM),surviving fraction ([1]; 500 nM),surviving fraction ([1]; 1000 nM)
NY BONE,1.03 ± 0.02,0.9813 ± 0.0058,1.08 ± 0.019,1.03 ± 0.024,1.09 ± 0.019,1.099 ± 0.0055,1.05 ± 0.012,1.03 ± 0.016,1.02 ± 0.024,1.03 ± 0.065,1.05 ± 0.057,1.04 ± 0.018,1.12 ± 0.023,1.06 ± 0.043,1.04 ± 0.049,1.02 ± 0.068
JIMT1 BREAST,0.97 ± 0.037,0.949 ± 0.027,0.999 ± 0.014,0.969 ± 0.015,1.09 ± 0.036,0.949 ± 0.06,1.03 ± 0.031,0.95 ± 0.07,0.959 ± 0.013,0.9905 ± 0.0018,0.993 ± 0.024,0.964 ± 0.027,1.1 ± 0.03,1 ± 0.031,1.05 ± 0.014,1.01 ± 0.032
ZR751 BREAST,1.16 ± 0.2,1.23 ± 0.071,1.14 ± 0.13,1.18 ± 0.23,1.2 ± 0.099,1.18 ± 0.25,1.26 ± 0.15,1.24 ± 0.22,1.07 ± 0.19,1.07 ± 0.057,0.923 ± 0.2,0.953 ± 0.15,1.13 ± 0.059,1.04 ± 0.11,1.23 ± 0.12,1.01 ± 0.054
SCC47 HEADNECK,1.21 ± 0.072,1.17 ± 0.042,1.19 ± 0.017,1.19 ± 0.071,1.26 ± 0.054,1.21 ± 0.16,1.14 ± 0.019,1.08 ± 0.045,1.12 ± 0.087,1.05 ± 0.03,1.13 ± 0.072,1.1 ± 0.013,1.17 ± 0.065,1.1 ± 0.091,1.1 ± 0.035,1.04 ± 0.048
MCF7 BREAST,0.942 ± 0.053,0.867 ± 0.048,0.995 ± 0.049,0.898 ± 0.042,0.968 ± 0.05,0.949 ± 0.068,0.984 ± 0.092,0.892 ± 0.018,0.965 ± 0.043,0.8934 ± 0.0072,0.891 ± 0.03,0.902 ± 0.026,0.956 ± 0.048,0.934 ± 0.01,0.925 ± 0.037,0.899 ± 0.032
143B BONE,1.11 ± 0.099,1.11 ± 0.083,1.13 ± 0.06,1.14 ± 0.097,1.15 ± 0.15,1.13 ± 0.053,1.13 ± 0.11,1.12 ± 0.11,1.042 ± 0.0092,1.048 ± 0.0064,1.03 ± 0.021,1.051 ± 0.0099,1.03 ± 0.046,1.043 ± 0.0099,1.03 ± 0.027,1.02 ± 0.027
OS25HAL BONE,1.09 ± 0.045,1.03 ± 0.019,0.994 ± 0.034,1.03 ± 0.019,1.18 ± 0.025,1.17 ± 0.053,1.06 ± 0.04,1.14 ± 0.029,1.03 ± 0.032,1.01 ± 0.0072,1.02 ± 0.011,1.04 ± 0.013,1.11 ± 0.013,1.05 ± 0.046,1.04 ± 0.054,0.982 ± 0.029
SUM149.B1*.S BREAST,1.15 ± 0.096,1.11 ± 0.02,1.12 ± 0.07,1.07 ± 0.025,1.17 ± 0.024,1.2 ± 0.029,1.19 ± 0.052,1.13 ± 0.025,1.13 ± 0.034,1.07 ± 0.013,1.11 ± 0.018,1.07 ± 0.019,1.19 ± 0.056,1.22 ± 0.058,1.139 ± 0.011,1.08 ± 0.021
HSSYII SYNOVIAL,0.965 ± 0.035,0.957 ± 0.015,0.975 ± 0.023,0.963 ± 0.089,0.965 ± 0.05,0.97 ± 0.016,0.959 ± 0.037,0.958 ± 0.089,0.986 ± 0.015,0.935 ± 0.028,0.975 ± 0.035,1 ± 0.019,0.892 ± 0.045,0.914 ± 0.07,0.811 ± 0.013,0.737 ± 0.045
DU4475 BREAST,1.03 ± 0.064,0.931 ± 0.032,1.08 ± 0.23,1.04 ± 0.089,0.909 ± 0.029,0.975 ± 0.18,0.895 ± 0.06,1.03 ± 0.035,1.11 ± 0.15,1.23 ± 0.076,1.08 ± 0.17,1.08 ± 0.31,1.03 ± 0.3,0.997 ± 0.36,1.02 ± 0.32,0.951 ± 0.32
HCC1954 BREAST,1.36 ± 0.11,1.02 ± 0.072,1.4 ± 0.31,1.52 ± 0.31,1.05 ± 0.15,0.954 ± 0.013,1.07 ± 0.062,0.836 ± 0.12,0.996 ± 0.22,0.907 ± 0.29,1.07 ± 0.21,0.901 ± 0.4,1.39 ± 0.17,1.05 ± 0.056,1.29 ± 0.054,1.36 ± 0.092
CASKI CERVIX,0.946 ± 0.064,0.877 ± 0.018,0.954 ± 0.043,0.93 ± 0.069,1.05 ± 0.025,1.04 ± 0.021,1.03 ± 0.077,1.03 ± 0.058,1.02 ± 0.062,0.971 ± 0.028,0.999 ± 0.038,0.977 ± 0.015,1.09 ± 0.034,1.08 ± 0.019,1.05 ± 0.049,1.05 ± 0.028
A549 LUNG,1.07 ± 0.023,1.08 ± 0.013,1.08 ± 0.02,1.03 ± 0.019,1.1 ± 0.011,1.06 ± 0.019,1.07 ± 0.032,1.09 ± 0.012,1.03 ± 0.035,1.02 ± 0.018,1.05 ± 0.0087,0.993 ± 0.039,1.07 ± 0.063,1.12 ± 0.042,1.154 ± 0.007,1.116 ± 0.011
SG32 HEADNECK,1.12 ± 0.12,1.07 ± 0.17,1.15 ± 0.17,1.17 ± 0.051,1.27 ± 0.12,1.38 ± 0.35,1.16 ± 0.2,1.04 ± 0.17,1.05 ± 0.16,1.31 ± 0.3,1.2 ± 0.11,1.09 ± 0.082,0.942 ± 0.11,0.993 ± 0.16,0.699 ± 0.059,0.721 ± 0.03
LM7 BONE,1.06 ± 0.017,1.07 ± 0.051,1.09 ± 0.076,1.05 ± 0.028,1.11 ± 0.064,1.08 ± 0.094,1 ± 0.028,1.02 ± 0.018,0.997 ± 0.1,0.98 ± 0.14,1.108 ± 0.011,1.05 ± 0.032,1.06 ± 0.093,1.09 ± 0.046,0.999 ± 0.12,1.02 ± 0.0049
NOS1 BONE,1.22 ± 0.2,1.08 ± 0.076,1.31 ± 0.13,1.25 ± 0.1,1.22 ± 0.14,1.23 ± 0.1,1.11 ± 0.051,0.955 ± 0.073,0.935 ± 0.071,0.997 ± 0.15,1.17 ± 0.086,0.969 ± 0.053,1.07 ± 0.055,1.11 ± 0.034,1.09 ± 0.11,1.09 ± 0.061
HMLE3 BREAST,1.07 ± 0.033,1.1 ± 0.053,1.11 ± 0.06,1.18 ± 0.092,1.06 ± 0.042,1.05 ± 0.11,1.02 ± 0.057,1.08 ± 0.13,1.05 ± 0.084,1.08 ± 0.081,1.05 ± 0.026,1.03 ± 0.043,1.1 ± 0.099,0.962 ± 0.086,0.925 ± 0.12,0.933 ± 0.066
SCC36 HEADNECK,1.07 ± 0.03,0.992 ± 0.15,1.09 ± 0.096,1.07 ± 0.097,1.06 ± 0.17,1.04 ± 0.078,1.05 ± 0.031,0.85 ± 0.12,1.02 ± 0.1,1.01 ± 0.015,1.17 ± 0.064,1.11 ± 0.056,1.1 ± 0.084,1.07 ± 0.025,0.923 ± 0.094,0.897 ± 0.025
